Measured values as given in the Kinase Knowledgebase extract (Sharma et al. 2016).

The compounds below were run against EGFR (human) (UniProt P00533).
Sequence of EGFR (human) (P00533 whole entry, looked up): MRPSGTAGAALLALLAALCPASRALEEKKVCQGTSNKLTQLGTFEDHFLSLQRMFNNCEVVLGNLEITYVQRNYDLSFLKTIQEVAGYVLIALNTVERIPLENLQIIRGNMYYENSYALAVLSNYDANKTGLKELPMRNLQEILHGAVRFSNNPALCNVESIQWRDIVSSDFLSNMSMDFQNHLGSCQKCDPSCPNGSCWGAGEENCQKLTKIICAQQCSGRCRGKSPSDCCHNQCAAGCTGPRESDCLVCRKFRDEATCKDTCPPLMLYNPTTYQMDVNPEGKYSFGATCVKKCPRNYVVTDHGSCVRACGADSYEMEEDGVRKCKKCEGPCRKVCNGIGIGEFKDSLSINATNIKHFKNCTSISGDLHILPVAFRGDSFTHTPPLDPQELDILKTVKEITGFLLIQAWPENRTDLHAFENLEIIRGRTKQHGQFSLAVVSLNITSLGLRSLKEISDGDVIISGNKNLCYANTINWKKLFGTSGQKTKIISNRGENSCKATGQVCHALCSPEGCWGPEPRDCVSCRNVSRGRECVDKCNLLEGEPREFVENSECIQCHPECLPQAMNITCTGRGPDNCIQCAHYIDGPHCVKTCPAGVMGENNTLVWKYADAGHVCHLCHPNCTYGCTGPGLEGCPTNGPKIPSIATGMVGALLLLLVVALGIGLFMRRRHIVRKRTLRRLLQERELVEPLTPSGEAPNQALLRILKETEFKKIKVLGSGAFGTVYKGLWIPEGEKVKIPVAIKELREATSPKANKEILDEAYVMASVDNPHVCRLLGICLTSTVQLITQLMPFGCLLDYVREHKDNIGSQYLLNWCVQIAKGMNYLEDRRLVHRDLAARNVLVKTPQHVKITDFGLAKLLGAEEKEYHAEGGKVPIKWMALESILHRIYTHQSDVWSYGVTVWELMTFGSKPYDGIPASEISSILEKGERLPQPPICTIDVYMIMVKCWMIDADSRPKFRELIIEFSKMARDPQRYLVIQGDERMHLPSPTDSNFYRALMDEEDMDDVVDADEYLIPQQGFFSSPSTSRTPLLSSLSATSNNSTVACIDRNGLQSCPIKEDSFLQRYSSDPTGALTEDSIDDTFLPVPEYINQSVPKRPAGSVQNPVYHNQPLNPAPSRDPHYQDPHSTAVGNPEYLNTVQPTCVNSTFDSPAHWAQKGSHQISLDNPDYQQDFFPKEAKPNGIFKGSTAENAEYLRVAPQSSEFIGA

`COc1cc(OCCN2CCOCC2)c(C)cc1Nc1nccc(-c2sc(C(C)C)nc2-c2cccc(NS(=O)(=O)c3c(F)cccc3F)c2F)n1` and `COc1ccc(S(C)(=O)=O)cc1Nc1nccc(-c2sc(C(C)C)nc2-c2cccc(NS(=O)(=O)c3c(F)cccc3F)c2F)n1` fall in the same range of IC50: 100 to 1000 nM for the first, 100 to 1000 nM for the second.

`CN1CCN(c2nc(-c3ccc(F)c(NS(=O)(=O)c4c(F)cccc4F)c3)c(-c3ccnc(Nc4ccc(N5CCOCC5)nc4)n3)s2)CC1` and `O=S(=O)(Nc1cc(-c2nc(N3CCCC3)sc2-c2ccnc(Nc3ccc(N4CCOCC4)nc3)n2)ccc1F)c1c(F)cccc1F` fall in the same range of IC50: 100 to 1000 nM for the first, 100 to 1000 nM for the second.

`CC(C)c1nc(-c2cccc(NS(=O)(=O)c3c(F)cccc3F)c2)c(-c2ccnc(Nc3ccc(N4CCN(CCS(C)(=O)=O)CC4)c(F)c3)n2)s1` and `CC(C)c1nc(-c2cccc(NS(=O)(=O)c3c(F)cccc3F)c2)c(-c2ccnc(Nc3ccc(N4CCCN(CCS(C)(=O)=O)CC4)nc3)n2)s1` fall in the same range of IC50: 100 to 1000 nM for the first, 100 to 1000 nM for the second.

First: COc1cc(N2CCN(CCS(C)(=O)=O)CC2)c(C)cc1Nc1nccc(-c2sc(N)nc2-c2cccc(NS(=O)(=O)c3c(F)cccc3F)c2)n1
Second: COc1cc(N2CCN(CCS(C)(=O)=O)CC2)c(C)cc1Nc1nccc(-c2sc(C(C)C)nc2-c2cccc(NS(=O)(=O)c3ccco3)c2)n1
The IC50 of the first is higher: 100 to 1000 nM for the first, < 100 nM for the second. The second is the more potent here.

`COc1cc(N2CCN(CCS(C)(=O)=O)CC2)c(C)cc1Nc1nccc(-c2sc(C3CCOCC3)nc2-c2cccc(NS(=O)(=O)c3c(F)cccc3F)c2F)n1` and `COc1cc(OC2CCN(CCS(C)(=O)=O)CC2)c(C)cc1Nc1nccc(-c2sc(C(C)C)nc2-c2cccc(NS(=O)(=O)c3c(F)cccc3F)c2)n1` cannot be ordered by IC50: < 100 nM for the first, < 100 nM for the second.

`CCNc1nc(-c2ccc(F)c(NS(=O)(=O)c3c(F)cccc3F)c2)c(-c2ccnc(Nc3ccc(N4CCOCC4)nc3)n2)s1` and `CN1CCC(c2nc(-c3ccc(F)c(NS(=O)(=O)c4c(F)cccc4F)c3)c(-c3ccnc(Nc4ccc(N5CCOCC5)nc4)n3)s2)CC1` fall in the same range of IC50: 100 to 1000 nM for the first, 100 to 1000 nM for the second.

`CCOc1ccc(Nc2nccc(-c3sc(C(C)C)nc3-c3ccc(F)c(NS(=O)(=O)c4c(F)cccc4F)c3)n2)cc1N1CCN(CCF)CC1` and `CC(C)c1nc(-c2cccc(NS(=O)(=O)c3c(F)cccc3F)c2)c(-c2ccnc(Nc3ccc(N4CCN(CCO)CC4)nc3)n2)s1` cannot be ordered by IC50: < 100 nM for the first, < 100 nM for the second.

Compared with `Cc1cc(N2CCC(N3CCCCC3)CC2)ccc1Nc1nccc(-c2sc(C(C)C)nc2-c2cccc(NS(=O)(=O)c3c(F)cccc3F)c2)n1`, `CC(C)c1nc(-c2cccc(NS(=O)(=O)c3c(F)cccc3F)c2)c(-c2ccnc(Nc3ccc(N4CCOCC4)c(C(=O)O)c3)n2)s1` is higher in IC50: < 100 nM for the first, 100 to 1000 nM for the second. The first is the more potent here.

`CCOc1ccc(Nc2nccc(-c3sc(N4CCCC4)nc3-c3cccc(NS(=O)(=O)c4c(F)cccc4F)c3)n2)cc1N1CCN(CCS(C)(=O)=O)CC1` and `COc1cc(Nc2nccc(-c3sc(C(C)C)nc3-c3cccc(NS(=O)(=O)c4c(F)cccc4F)c3)n2)cc(OC)c1OC1CCN(CCS(C)(=O)=O)CC1` cannot be ordered by IC50: < 100 nM for the first, < 100 nM for the second.

`CC(C)c1nc(-c2cccc(NS(=O)(=O)c3ccccc3)c2)c(-c2ccnc(Nc3ccc(N4CCOCC4)nc3)n2)s1` and `CC(C)c1nc(-c2cccc(NS(=O)(=O)c3c(F)cccc3F)c2)c(-c2ccnc(Nc3ccc(N4CCOCC4)nc3)n2)s1` fall in the same range of IC50: 100 to 1000 nM for the first, 100 to 1000 nM for the second.

`CC(=O)N1CCN(c2ccc(Nc3nccc(-c4sc(C(C)C)nc4-c4cccc(NS(=O)(=O)c5cccc(F)c5)c4)n3)cn2)CC1` and `CCc1nc(-c2cccc(CNS(=O)(=O)c3ccccc3)c2)c(-c2ccnc(Nc3ccc(N4CCN(C(C)=O)CC4)nc3)n2)s1` fall in the same range of IC50: 100 to 1000 nM for the first, 100 to 1000 nM for the second.

First: COc1ccc(Nc2nccc(-c3sc(C(C)C)nc3-c3cccc(NS(=O)(=O)c4ccccc4)c3)n2)cc1N1CCN(CCC#N)CC1
Second: CC(C)c1nc(-c2cccc(NS(=O)(=O)c3ccccc3)c2)c(-c2ccnc(Nc3ccc(CC4CCN(CCS(C)(=O)=O)CC4)c(F)c3)n2)s1
The IC50 of the first is lower: < 100 nM for the first, 100 to 1000 nM for the second.

`CC(C)c1nc(-c2cccc(NS(=O)(=O)c3c(F)cccc3F)c2)c(-c2ccnc(Nc3ccc(N4CCOCC4)c(F)c3)n2)o1` and `CC(C)c1nc(-c2ccc(F)c(NS(=O)(=O)c3c(F)cccc3F)c2)c(-c2ccnc(Nc3ccc(N4CCN5CCOC[C@H]5C4)nc3)n2)s1` fall in the same range of IC50: 100 to 1000 nM for the first, 100 to 1000 nM for the second.
